Test results as given in patent US20110190365A1, “Insecticidal 4-phenyl-1H-pyrazoles” (Bayer Crop Science AG, priority 2008, published 2011).

Test: log P by HPLC on a reversed-phase column (C18), EEC Directive 79/831 Annex V.A8
Type: physicochemical
Settings: HCOOH
Description: The stated log P values were determined in accordance with EEC Directive 79/831 Annex V.A8 by HPLC (High Performance Liquid Chromatography) using a reversed-phase column (C18).

Structure (SMILES) | log P (HCOOH)
Cc1cc(-n2nc(-c3ccccc3)c(-c3ccc(Cl)cc3)c2N)ccc1C(=O)NCc1ccccn1 [I-A-Q2-377] | I-A-Q2-377: log P (HCOOH): 2.80
Cc1cc(-n2nc(C)c(-c3ccc(F)cc3)c2N)ccc1C(=O)NCC(F)(F)C(F)F [I-A-Q2-326] | I-A-Q2-326: log P (HCOOH): 2.51
CSc1c(-c2cc(Cl)cc(Cl)c2)c(C(F)(F)F)nn1-c1ccc(C(=O)NCc2ncccn2)c(C)c1 [I-A-Q2-276] | I-A-Q2-276: log P (HCOOH): 4.50
Nc1c(-c2cc(Cl)cc(Cl)c2)c(C(F)(F)F)nn1-c1ccc(C(=O)NCc2ncccn2)cn1 [I-A-Q2-108] | I-A-Q2-108: log P (HCOOH): 3.80
Cc1cc(-n2nc(C)c(-c3c(F)cccc3F)c2N)ccc1C(=O)NCc1ccccn1 [I-A-Q2-369] | I-A-Q2-369: log P (HCOOH): 1.52
Cc1nccc(CNC(=O)c2ccc(-n3nc(C(F)(F)F)c(-c4cc(Cl)cc(Cl)c4)c3N)cc2C)n1 [I-A-Q2-258] | I-A-Q2-258: log P (HCOOH): 3.47
Cc1cc(-n2nc(C(F)(F)F)c(-c3ccc(Cl)c(Cl)c3)c2N)ccc1C(=O)NCC(F)(F)C(F)F [I-A-Q2-304] | I-A-Q2-304: log P (HCOOH): 4.00
Cc1cc(-n2nc(C(F)(F)F)c(I)c2N)ccc1C(=O)NCc1ccccn1 [XI-A-095] | XI-A-095: log P (HCOOH): 2.03
Cc1cc(-n2nc(C(F)(F)F)c(-c3cc(F)c(F)c(F)c3)c2N)ccc1C(=O)NCC(F)(F)C(F)F [I-A-Q2-316] | I-A-Q2-316: log P (HCOOH): 3.65
Nc1c(-c2cccc(F)c2)c(C(F)(F)F)nn1-c1ccc(C(=O)NC2CC2)cc1 [I-A-Q2-184] | I-A-Q2-184: log P (HCOOH): 2.76
CC(NC(=O)c1ccc(-n2nc(C(F)(F)F)c(-c3cc(Cl)cc(Cl)c3)c2N)nc1)c1ccccc1 (stereo not drawn) [I-A-Q2-103] | I-A-Q2-103: log P (HCOOH): 5.19
Cc1cc(-n2nc(C)c(-c3ccc(Cl)c(Cl)c3)c2N)ccc1C(=O)NCC(F)(F)C(F)F [I-A-Q2-323] | I-A-Q2-323: log P (HCOOH): 4.32
Cc1cc(-n2nc(C(F)(F)F)c(-c3ccc(Cl)cc3)c2N)ccc1C(=O)NCC(F)(F)C(F)F [I-A-Q2-302] | I-A-Q2-302: log P (HCOOH): 3.61
Cc1cc(-n2nc(C(F)(F)c3cccc(C(F)(F)F)c3)c(-c3cc(Cl)cc(C(F)(F)F)c3)c2N)ccc1C(=O)NCC(F)(F)C(F)F [I-A-Q2-286] | I-A-Q2-286: log P (HCOOH): 4.89
Cc1cc(-n2nc(C(F)(F)Oc3ccccc3)c(-c3cc(Cl)cc(C(F)(F)F)c3)c2N)ccc1C(=O)NCC(F)(F)C(F)F [I-A-Q2-299] | I-A-Q2-299: log P (HCOOH): 4.51
CCCNC(=O)c1ccc(-n2nc(C(F)(F)F)c(-c3cc(Cl)cc(Cl)c3)c2N)cc1 [I-A-Q2-151] | I-A-Q2-151: log P (HCOOH): 4.06
Cc1cc(-n2nc(C(F)(F)F)c(-c3cc(Cl)cc(Cl)c3)c2N)ccc1C(=O)NCc1cc(-c2ccccc2)ccn1 [I-A-Q2-206] | I-A-Q2-206: log P (HCOOH): 4.29
Cc1cc(-n2nc(C(F)(F)F)c(-c3cc(Cl)cc(Cl)c3)c2N)ccc1C(=O)NCc1cc(F)ccc1F [I-A-Q2-046] | I-A-Q2-046: log P (HCOOH): 4.51
Cc1cc(-n2nc(C(F)(F)Cl)c(-c3cc(Cl)cc(C(F)(F)F)c3)c2N)ccc1C(=O)NCC(F)(F)C(F)F [I-A-Q2-322] | I-A-Q2-322: log P (HCOOH): 4.34
Cc1cc(-n2nc(C(F)(F)F)c(-c3cc(Cl)cc(Cl)c3)c2N)ccc1C(=O)NCc1cccc(N2CCOCC2)n1 [I-A-Q2-280] | I-A-Q2-280: log P (HCOOH): 3.96

Structure (SMILES) | log P (HCOOH)
C#CCNC(=O)c1ccc(-n2nc(C(F)(F)F)c(-c3cc(Cl)cc(Cl)c3)c2N)cc1C [I-A-Q2-238] | I-A-Q2-238: log P (HCOOH): 3.78
Cc1cc(-n2nc(C(F)(F)F)cc2N)ccc1C(=O)NCc1ccccn1 [XI-A-089] | XI-A-089: log P (HCOOH): 2.45
Cc1cc(-n2nc(C(F)(F)F)c(-c3cc(Cl)cc(Cl)c3)c2N)ccc1C(=O)NC1CCOCC1 [I-A-Q2-250] | I-A-Q2-250: log P (HCOOH): 3.68
Cc1cc(-n2nc(C(C)C)c(-c3ccc(Cl)cc3)c2N)ccc1C(=O)NCc1ccccn1 [I-A-Q2-378] | I-A-Q2-378: log P (HCOOH): 2.61
Cc1cc(-n2nc(C(F)(F)F)c(-c3cc(Cl)cc(Cl)c3)c2N)ccc1C(=O)NCCOC(C(F)(F)F)C(F)(F)F [I-A-Q2-048] | I-A-Q2-048: log P (HCOOH): 4.70
Cc1cc(-n2nc(C(F)(F)Oc3ccc(Cl)c(Cl)c3)c(-c3cc(Cl)cc(C(F)(F)F)c3)c2N)ccc1C(=O)NCC(F)(F)C(F)F [I-A-Q2-300] | I-A-Q2-300: log P (HCOOH): 5.40
Cc1nn(-c2ccc(C(=O)NC(C)C(F)(F)F)cc2)c(Br)c1-c1cccc(Cl)c1 (stereo not drawn) [I-A-Q2-098] | I-A-Q2-098: log P (HCOOH): 4.36
Cc1cc(-n2nc(C(F)F)c(-c3ccc(Cl)cc3)c2N)ccc1C(=O)NCC(F)(F)C(F)F [I-A-Q2-320] | I-A-Q2-320: log P (HCOOH): 3.23
Cc1cc(-n2nc(C(F)(F)F)c(-c3cc(Cl)cc(Cl)c3)c2N)ccc1C(=O)NC(C)C(F)(F)F (stereo not drawn) [I-A-Q2-011] | I-A-Q2-011: log P (HCOOH): 4.54
Cc1cc(-n2nc(C(F)(F)F)c(-c3cc(Cl)cc(Cl)c3)c2N)ccc1C(=O)NC(C)c1ccc(F)cc1 (stereo not drawn) [I-A-Q2-247] | I-A-Q2-247: log P (HCOOH): 4.57
Cc1cc(-n2nc(C(F)(F)F)c(-c3cc(Cl)cc(Cl)c3)c2N)ccc1C(=O)NCc1ccc(Cl)nc1 [I-A-Q2-219] | I-A-Q2-219: log P (HCOOH): 4.05
CNC(=O)c1ccc(-n2nc(C(F)(F)F)c(-c3cccc(Cl)c3)c2N)cc1 [I-A-Q2-094] | I-A-Q2-094: log P (HCOOH): 2.76
Nc1c(-c2cc(Cl)cc(Cl)c2)c(C(F)(F)F)nn1-c1ccc(C(=O)NCc2ncccn2)cc1 [I-A-Q2-137] | I-A-Q2-137: log P (HCOOH): 3.40
CC(NC(=O)c1ccc(-n2nc(C(F)(F)F)c(-c3cccc(Cl)c3)c2N)cc1)C(F)(F)F (stereo not drawn) [I-A-Q2-083] | I-A-Q2-083: log P (HCOOH): 3.68
CCOC(=O)c1ccc(-n2nc(C(F)(F)F)c(Cl)c2N)cc1 [XI-A-042] | XI-A-042: log P (HCOOH): 3.52
Cc1cc(-n2nc(C(F)(F)F)c(-c3cc(Cl)cc(Cl)c3)c2N)ccc1C(=O)NC(c1cc(Cl)cc(Cl)c1)C(F)(F)F (stereo not drawn) [I-A-Q2-043] | I-A-Q2-043: log P (HCOOH): 5.65
Cc1cc(-n2nc(C(F)(F)F)c(-c3ccc(Cl)cc3Cl)c2N)ccc1C(=O)NCc1ccccn1 [I-A-Q2-348] | I-A-Q2-348: log P (HCOOH): 2.84
Cc1cc(-n2nc(C)c(-c3ccc(F)cc3Cl)c2N)ccc1C(=O)NCc1ccccn1 [I-A-Q2-368] | I-A-Q2-368: log P (HCOOH): 1.79
Cc1cc(-n2nc(C(F)(F)F)c(-c3cc(Cl)cc(Cl)c3)c2Br)ccc1C(=O)NCc1ccccn1 [I-A-Q2-023] | I-A-Q2-023: log P (HCOOH): 4.91
Nc1c(-c2cc(Cl)cc(Cl)c2)c(C(F)(F)F)nn1-c1ccc(C(=O)NCC(F)F)cc1 [I-A-Q2-140] | I-A-Q2-140: log P (HCOOH): 3.93

Same assay, conditions: HCOOH; Table 4, compounds of formula I-A-Q4

Structure (SMILES) | log P (HCOOH)
Nc1c(-c2ccc(Cl)cc2)c(C2CC2)nn1-c1ccc(Cl)cn1 [I-A-Q4-024] | I-A-Q4-024: log P (HCOOH): 5.36
CNc1cc(-n2nc(C(F)(F)F)c(-c3cc(Cl)cc(Cl)c3)c2N)ccc1C(=O)O [I-A-Q4-120] | I-A-Q4-120: log P (HCOOH): 4.11
CC(C)c1nn(-c2ccc(Cl)cn2)c(N)c1-c1ccc(Cl)cc1 [I-A-Q4-027] | I-A-Q4-027: log P (HCOOH): 5.73
Cc1nn(-c2ccc(Cl)cn2)c(N)c1-c1c(Cl)cccc1Cl [I-A-Q4-029] | I-A-Q4-029: log P (HCOOH): 4.05
Nc1c(-c2ccc(Br)cc2)c(C(F)(F)F)nn1-c1ccc(C(=O)O)cc1 [I-A-Q4-098] | I-A-Q4-098: log P (HCOOH): 3.35
N#Cc1cc(-n2nc(C(F)(F)F)c(-c3cc(Cl)cc(Cl)c3)c2N)ccc1S(=O)(=O)NC1CCC1 [I-A-Q4-122] | I-A-Q4-122: log P (HCOOH): 4.69
Cc1nn(-c2ccc(Cl)cn2)c(N)c1-c1ccc(Cl)c(Cl)c1 [I-A-Q4-060] | I-A-Q4-060: log P (HCOOH): 5.02

Same assay, conditions: HCOOH; compounds of the formula (IX), Table 11

Structure (SMILES) | log P (HCOOH)
CC(=O)Nc1[nH]nc(C(F)(F)F)c1-c1cc(Cl)cc(Cl)c1 [IX-203] | IX-203: log P (HCOOH): 2.98

Same assay, conditions: HPLC, reversed-phase C18, mobile phase with formic acid

Structure (SMILES) | log P (HCOOH)
N#Cc1cc(-n2nc(C(F)(F)F)c(-c3cc(Cl)cc(Cl)c3)c2N)ccc1-n1nc(C(F)(F)F)nc1N [I-A-Q1-093] | I-A-Q1-093: log P (HCOOH): 4.00
Cc1nn(-c2ccc(-n3cncn3)c(C#N)c2)c(N)c1-c1ccc(Cl)c(Cl)c1 [I-A-Q1-025] | I-A-Q1-025: log P (HCOOH): 3.02
Cc1nn(-c2ccc(-n3cncn3)c(C#N)c2)c(N)c1-c1ccc(F)cc1 [I-A-Q1-059] | I-A-Q1-059: log P (HCOOH): 2.30
Cc1nn(-c2ccc(-n3cncn3)c(C#N)c2)c(N)c1-c1c(F)cccc1F [I-A-Q1-054] | I-A-Q1-054: log P (HCOOH): 2.18
Cc1nc(C)n(-c2ccc(-n3nc(C(F)(F)F)c(-c4cc(Cl)cc(Cl)c4)c3N)cc2C#N)n1 [I-A-Q1-083] | I-A-Q1-083: log P (HCOOH): 3.84
N#Cc1cc(-n2nc(C(F)(F)C(F)(F)F)c(-c3cc(C(F)(F)F)cc(C(F)(F)F)c3)c2N)ccc1-n1cncn1 [I-A-Q1-050] | I-A-Q1-050: log P (HCOOH): 4.34
Cc1nn(-c2ccc(-n3cncn3)c(C#N)c2)c(N)c1-c1c(F)cccc1Cl [I-A-Q1-051] | I-A-Q1-051: log P (HCOOH): 2.27
N#Cc1cc(-n2nc(C(F)(F)F)c(-c3cc(F)cc(Cl)c3)c2N)ccc1-n1cncn1 [I-A-Q1-037] | I-A-Q1-037: log P (HCOOH): 3.33
COC(C)c1nn(-c2ccc(-n3cncn3)c(C#N)c2)c(N)c1-c1cc(Cl)cc(C(F)(F)F)c1 (stereo not drawn) [I-A-Q1-023] | I-A-Q1-023: log P (HCOOH): 2.76
N#Cc1cc(-n2nc(C(F)(F)F)c(-c3cc(Cl)cc(Cl)c3)c2N)ccc1-n1cnc2ccccc21 [I-A-Q1-081] | I-A-Q1-081: log P (HCOOH): 4.28
Nc1c(-c2cc(Cl)cc(Cl)c2)c(C(F)(F)F)nn1-c1ccc(CNC(=O)CC(F)(F)F)c(Cl)c1 [I-A-Q3-021] | I-A-Q3-021: log P (HCOOH): 4.48

Same assay, conditions: HPLC, reversed-phase C18, mobile phase with formic acid; read-out: log P (HCOOH)

Structure (SMILES) | chromatographic logP
Cc1cc(-n2nc(C(F)(F)F)c(-c3ccc(Cl)c(Cl)c3)c2N)ccc1C(=O)O [I-A-Q4-012, 4-[5-Amino-4-(3,4-dichlorophenyl)-3-(trifluoromethyl)-1H-pyrazol-1-yl]-2-methylbenzoic acid] | 3.92
